# Data published in patent US20030041357A1, “Herbicide resistant plants” (priority 1996, published 2003).
# How the values were obtained:
# [1] = test system: wild type tomato (cv Ailsa Craig); experiment: PDS inhibitor herbicide tolerance trial; type: in vivo
# [2] = test system: transgenic tomato over-expressing the Erwinia uredovora crt1 (PDS) gene; experiment: PDS inhibitor herbicide tolerance trial; type: in vivo; conditions: for Phytotoxity at 27 PAT: Transgenic tomato
# [3] = test system: maize seedlings which contain the PAT gene; experiment: Glufosinate spray of maize seedlings; type: in vivo; conditions: commercial mix, about 0.1 to 1% active ingredient
# wild-type tobacco = experiment: Rooting assay on MS medium with herbicide; type: in vivo, Nicotiana tabacum cv Samsum; conditions: for root growth of explants: 3 weeks, 10, 20, 40 ppm acetochlor/metolachlor, 20, 40, 100 ppm alachlor
# [4] = test system: transgenic tobacco plants expressing GST-27; experiment: Post-emergence glasshouse herbicide trial; type: in vivo, Nicotiana tabacum cv Samsum; conditions: sprayed 16 days after sowing, 5% JF 5969
# [5] = test system: primary transformants from pDV6-Bin; experiment: Growth on herbicide-containing tissue culture medium; type: in vivo, Tobacco; conditions: a number of transgenics; 0.01 and 0.05 mM glyphosate; 10 and 40 ppm alachlor
# wild type controls = experiment: as above; type: in vivo, Tobacco; conditions: 0.01 and 0.05 mM glyphosate; 10 and 40 ppm alachlor
# GST-27 tobacco lines = experiment: Rooting assay on MS medium with herbicide; type: in vivo, Nicotiana tabacum cv Samsum
# [6] = test system: transgenic tobacco plants expressing GST-27; experiment: Pre-emergence glasshouse herbicide trial; type: in vivo, Nicotiana tabacum cv Samsum; conditions: 300 and 350 g/ha in 5% JF 5969
# [7] = test system: pDV6 plants expressing both glyphosate resistance genes and GST; experiment: Pre-em/post-em herbicide treatment of DV6 plants (Table 1); set-up: species or system Tobacco; conditions: in vivo
# [8] = biological target: GST-27 (leaf extracts of GST-27 expressing tobacco) (Zea mays, UniProt P46420); experiment: In vitro HPLC assay of GST activity against herbicide substrates; type: biochemical; conditions: GST-27 tobacco extracts, 5 mM glutathione, 20 ppm herbicide
# Sequence of GST-27 (leaf extracts of GST-27 expressing tobacco) (P46420 whole entry): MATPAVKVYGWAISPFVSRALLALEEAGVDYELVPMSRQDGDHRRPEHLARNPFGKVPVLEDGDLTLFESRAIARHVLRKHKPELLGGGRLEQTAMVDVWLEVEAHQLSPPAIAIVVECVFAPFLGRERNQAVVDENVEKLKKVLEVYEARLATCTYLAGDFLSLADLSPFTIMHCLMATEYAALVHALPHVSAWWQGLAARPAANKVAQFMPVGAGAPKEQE
# DV6/HPPD tobacco = experiment: Herbicide trial of DV6/HPPD cross (Example 10); type: in vivo; conditions: 75 g/ha
# [9] = test system: transgenic maize seedlings expressing GST-27; experiment: Acetochlor-treated soil seedling test; type: in vivo; conditions: soil treated with 2,000 to 8,000 grams per hectare, 7 days
# [10] = test system: non-transgenic maize seedlings; experiment: Acetochlor-treated soil seedling test; type: in vivo; conditions: soil treated with 2,000 to 8,000 grams per hectare, absence of safener, 7 days
# Wild Type tobacco = experiment: Herbicide trial of DV6/HPPD cross (Example 10); type: in vivo; conditions: 75 g/ha
# [11] = line 2, pilot experiment, 2 weeks
# [12] = line 6, pilot experiment, 2 weeks
compound,measurement,setting,value
COc1nn(-c2cccc(C(F)(F)F)c2)/c(=N\C(=O)OC(C)C)s1 [Compound II],Phytotoxity at 27 PAT,[1]; 37 g/ha,3.3%
same,Phytotoxity at 27 PAT,[1]; 111 g/ha,13.3%
same,Phytotoxity at 27 PAT,[1]; 333 g/ha,20%
same,Phytotoxity at 27 PAT,[1]; 1000 g/ha,100%
same,Phytotoxity at 27 PAT,[2]; 111 g/ha,3.3%
same,Phytotoxity at 27 PAT,[2]; 333 g/ha,0%
same,Phytotoxity at 27 PAT,[2]; 1000 g/ha,3.3%
same,Phytotoxity at 27 PAT,[2]; 3000 g/ha,0%
O=C1C(Cl)C(CCl)CN1c1cccc(C(F)(F)F)c1 (stereo not shown) [Compound I],Phytotoxity at 27 PAT,[1]; 333 g/ha,0%
same,Phytotoxity at 27 PAT,[1]; 1000 g/ha,23.3%
same,Phytotoxity at 27 PAT,[1]; 3000 g/ha,100%
same,Phytotoxity at 27 PAT,[1]; 9000 g/ha,100%
same,Phytotoxity at 27 PAT,[2]; 333 g/ha,0%
same,Phytotoxity at 27 PAT,[2]; 1000 g/ha,0%
same,Phytotoxity at 27 PAT,[2]; 3000 g/ha,0%
same,Phytotoxity at 27 PAT,[2]; 9000 g/ha,0%
same,rate to which transgenic tomatoes are highly tolerant,[2]; transgenic tomatoes,up to 9 kg/ha
CP(=O)(O)CCC(N)C(=O)O (stereo not shown) [glufosinate],resistance of seedlings to spray,[3],"either completely resistant to glufosinate, or are relatively tolerant of the herbicide"
"CCc1cccc(CC)c1N(COC)C(=O)CCl [Alachlor, alachlor]",root growth of explants,wild-type tobacco,does not produce any root
same,concentration from which an effect of the herbicide is observable,"wild-type tobacco; pilot experiment, 2 weeks",≥ 1 ppm
same,concentration from which plants do not produce new leaves,"wild-type tobacco; pilot experiment, 2 weeks",≥ 10 ppm
same,concentration up to which roots are produced,"wild-type tobacco; pilot experiment, 2 weeks",up to 5 ppm
same,resistance to post-emergent spray (damage scored after 3 weeks),[4],resistant
same,growth on tissue culture medium,[5],grow successfully
same,growth on tissue culture medium,wild type controls,fail to
same,concentration up to which roots are produced,"GST-27 tobacco lines; GST-27 lines 6 and 17, 3 weeks",≤ 40 ppm
same,root growth of explants,"GST-27 tobacco lines; Lines 9 and 16, 20 and 40 ppm, 3 weeks",do not produce any roots
same,concentration from which an effect of the herbicide is observable,GST-27 tobacco lines; [11],≥ 20 ppm
same,concentration up to which roots are produced,GST-27 tobacco lines; [11],up to 10 ppm
same,concentration from which an effect of the herbicide is observable,GST-27 tobacco lines; [12],≥ 40 ppm
same,concentration up to which roots are produced,GST-27 tobacco lines; [12],≤ 20 ppm
same,resistance to pre-emergent application (germination scored after 3 weeks),[6],resistant
CCCN(CCC)C(=O)SCC [EPTC],"% Phytotoxicity (mean, 21 DAT)",[7],0%
CCC1CN(c2cccc(C(F)(F)F)c2)C(=O)C1C(=O)NC (stereo not shown) [Compound III],Phytotoxity at 27 PAT,[1]; 37 g/ha,0%
same,Phytotoxity at 27 PAT,[1]; 111 g/ha,8.3%
same,Phytotoxity at 27 PAT,[1]; 333 g/ha,56.7%
same,Phytotoxity at 27 PAT,[1]; 1000 g/ha,100%
same,Phytotoxity at 27 PAT,[2]; 111 g/ha,0%
same,Phytotoxity at 27 PAT,[2]; 333 g/ha,0%
same,Phytotoxity at 27 PAT,[2]; 1000 g/ha,10%
same,Phytotoxity at 27 PAT,[2]; 3000 g/ha,3.3%
"CCc1cccc(C)c1N(C(=O)CCl)C(C)COC (stereo not shown) [Metolachlor, metolachlor]",root growth of explants,wild-type tobacco,produces very few tiny roots at 10 and 20 ppm
same,GST activity against herbicide substrate (HPLC),[8],lowest activity
same,rooting concentration limit,"GST-27 tobacco lines; GST-27 line 17, 3 weeks",more than 40 ppm
same,root growth of explants,"GST-27 tobacco lines; GST-27 lines 6 and 17, 3 weeks",produce short roots
"CCOCN(C(=O)CCl)c1c(C)cccc1CC [Acetochlor, acetochlor]","phytotoxicity score, 21 DAT",DV6/HPPD tobacco; DV6/HPPD Rep a,0
same,"phytotoxicity score, 21 DAT",DV6/HPPD tobacco; DV6/HPPD Rep b,0
same,root growth of explants,wild-type tobacco,do not show any rooting
same,seedling damage,[9],"little, if any damage"
same,seedling damage,[10],very substantial damage
same,"phytotoxicity score, 21 DAT",Wild Type tobacco; Wild Type Rep a,40
same,"phytotoxicity score, 21 DAT",Wild Type tobacco; Wild type Rep b,100
same,GST activity against herbicide substrate (HPLC),[8],lowest activity
same,root growth of explants,"GST-27 tobacco lines; GST-27 lines 6 and 17, 3 weeks",produce few roots at 10 and 20 ppm
same,root growth of explants,"GST-27 tobacco lines; lines 5 and 12, 3 weeks",not as resistant
